# Values of other authors in US20080112943A1, “Biosynthetic Polypeptide Fusion Inhibitors” (priority 2005, published 2008).
# Experiments:
# [1] = in vitro studies and in animals
# [2] = system: HIV-1
# [3] = system: monocytes and neutrophils
# [4] = target: T1, N-formyl peptide receptor (Homo sapiens, UniProt P21462); details: human phagocytes
# T1 construct: host or cells: human phagocytes (endogenous receptor)
# T1 sequence (P21462 1-350): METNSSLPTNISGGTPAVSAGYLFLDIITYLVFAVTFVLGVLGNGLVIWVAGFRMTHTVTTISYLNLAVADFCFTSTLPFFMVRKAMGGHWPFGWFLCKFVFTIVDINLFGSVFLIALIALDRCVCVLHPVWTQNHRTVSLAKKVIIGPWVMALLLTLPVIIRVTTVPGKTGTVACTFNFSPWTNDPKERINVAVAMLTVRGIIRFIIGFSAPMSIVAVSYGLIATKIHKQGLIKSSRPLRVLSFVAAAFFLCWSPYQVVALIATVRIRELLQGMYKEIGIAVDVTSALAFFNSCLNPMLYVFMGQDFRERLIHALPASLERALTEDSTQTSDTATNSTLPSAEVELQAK
substance,measurement,setting,value
enfuvirtide,toxicity,[1],non-toxic
same,"inhibition of HIV-1 mediated CD-4+ cell-cell fusion (i.e., syncytial formation) and infection of CD-4+ cells by cell-free virus",[2],potent inhibitor
same,chemoattractant and activator of monocytes and neutrophils,[3],chemoattractant and activator
same,activation of the N-formyl peptide receptor,[4],activates
